Measurements from patent US20100322979A1, “Peptidomimetic Resorbable Peptide-Polymer Hybrid Polyester Nanoparticles” (UNIVERSITY OF SOUTH CAROLINA, priority 2009, published 2010).
Like-named read-outs stand apart in the source and are kept apart here. Ends that are not written are not given here.

Legend:
mouse breast cancer MTCL = assay: In vivo effect of the NPs on host toxicity and anti-tumor efficacy; conditions: tail vein injection; Dox 6 mg/kg of body weight where present
Method: In accordance with the present disclosure, a mouse breast cancer MTCL grown under the back skin of syngeneic C3H mice was utilized. When the tumor size reached 300 mm^3, mice were randomly divided into 6 groups (10 mice/group) and received one of these treatments by tail vein injection: PBS, PLAA-EO NPs, PLAA-CV6K2 NPs, Dox, Dox+PLAA-EO NPs, and Dox+PLAA-CV6K2 NPs. The injected Dox amount was 6 mg/kg of body weight. After the treatment, body weight and tumor size were measured daily and the results are shown in FIGS. 10a and 10b, respectively. […] Near-infrared (NIR) imaging was used to determine in vivo distribution of the NPs loaded with near-infrared dye IRDye 800RS Carboxylate (absorption at 786 nm). The infrared intensity in the intestinal region was at least 100 times higher than the other regions (confirmed by sacrificing the animal and directly imaging the intestinal tissue as shown in the inset of FIG. 10c).

HCT116 tumor cell line = assay: Tumor cell toxicity, MTT assay; type: cell-based; conditions: Homo sapiens, HCT-116, 72 h; 40 μg/ml Paclitaxel, after 3 days; read-out: cell viability (percentage of drug-free samples)
Method: Tumor cell toxicity was determined by incubating Paclitaxel drug, encapsulated in NPs, with HCT116 tumor cell line, seeded at a density of 5×10^4 cells/cm^2 and cultured in basal media (40 μg/ml Paclitaxel) for 24, 48, and 72 h. At each time point, suspension was removed, cells were washed with PBS, and viability was assessed by the MTT assay. FIG. 3(d) compares cell viability of HCT116 cells (expressed as the percentage of the values obtained from cells in the presence of drug compared to those in drug-free samples) incubated with 40 μg/ml Paclitaxel with that incubated with the same concentration encapsulated in PLGF NPs. […] Cell viability of Paclitaxel in solution after 3 days was 40% while that encapsulated in NPs was 28%. […] Toxicity of CV6K2-PLGF NPs to normal cells was assessed with bone marrow stromal (BMS) cells isolated from the bone marrow of Wistar rats. BMS cells were seeded in 24 well plates in primary media at a density of 4×10^4 cells/cm^2, incubated for 24 h for cell attachment. After cell attachment, the media was replaced with media containing […] of CV6K2-PLGF NPs and incubated for 1, 2, and 3 days. At each time point, the cells were washed with PBS to remove the free NPs, and the fraction of viable cells was measured by the MTT assay.

[1] = NP morphology and size distribution by electron microscopy and dynamic light scattering; type: physicochemical; conditions: Example 2
Text: Fumarate functionalized poly(lactide-co-glycolide) (PLGF) NPs are conjugated with CV6K2 peptide to stabilize the NPs through specific interactions between the amino acid side chains. Low molecular weight poly(lactide-co-glycolide) (LMW PLGA) are synthesized by ring opening polymerization of a mixture of lactide and glycolide monomers. PLGF was synthesized by polymerization of ULMW PLGA with fumaryl chloride (FuCl). The fumarate groups in PLGF macromer provide functionality for covalent attachment of ligands which bind with high specificity to receptors on tumor-associated cells, like the αvβ3 integrin receptor. ULMW PLGA with number-average molecular weight in the range 1-3 kDa was used in the synthesis of PLGF for highest density of unsaturated fumarate groups for ligand conjugation. […] The morphology and size distribution of the NPs were determined by SEM and dynamic light scattering, respectively. […]
Nanoparticle (NP) self-assembly and characterization: PLAF-CV6K2 or PLGF-CV6K2 macromers were dissolved in a solution of 1 mL DMF and 8 mL dimethysulfoxide (DMSO). […] The size distribution of NPs was measured by dynamic light scattering (DLS). […] At each time point, NPs size was measured with DLS. […] The fraction of mass remaining was determined by dividing the dried mass in the supernatant at time t by the initial mass at time zero.

[2] = Release kinetics of Paclitaxel from NPs in-vitro in PBS (pH 7.4); type: physicochemical
Method: Degradation and release characteristics of NPs. PLGF macromer with 100:0 lactide to glycolide ratio (PLAF) was synthesized by condensation polymerization. CV6K2 peptide was conjugated to PLAF to produce CV6K2-PLAF macromer. PLGF-PLEOF and CV6K2-PLGF NPs were produced by dialysis of the macromers in dimethylsulfoxide/dimethylformamide (DMSO/DMF) against water. Degradation of PLGF-PLEOF NPs was non-linear with incubation. […] To measure release kinetics, Paclitaxel was used as the surrogate molecule. Paclitaxel loaded NPs were prepared by dialysis. After dialysis, the NPs were dissolved in DMSO and 3 ml of acetonitrile-water mixture (50:50 v/v) was added. After 2 h, the suspension was centrifuged and the amount of Paclitaxel in the supernatant was measured by isocratic reverse-phase HPLC with a photodiode array detector at the wavelength of 227 nm. The encapsulation efficiency ranged from 70 to 56% and decreased with increasing Paclitaxel concentration. […]
Release profiles of Paclitaxel from CV6K2 NPs: NPs (6% Paclitaxel by weight of the PLAF or PLGF macromer) were prepared by dialysis. After dialysis for 24 h to self-assemble the macromers and to remove the unencapsulated Paclitaxel, encapsulation efficiency was determined by HPLC. The release kinetics of Paclitaxel from the NPs was measured in-vitro in PBS (pH 7.4) for up to 28 days. […]

MCF-7 cells = assay: Binding of cyclic peptide grafted NPs to tumor cells, confocal microscopy; type: cell-based
Text: (§1) Targeting to tumor endothelial cells by grafting cyclic c(-RGDfC-) peptide to NPs: The linear D-Phe-Cys-Arg-Gly-Asp peptide was synthesized manually using Fmoc chemistry. After peptide chain elongation, the linear peptide was cyclized directly on the peptidyl resin by coupling the carboxylate group on aspartic acid to the amine group on phenylalanine in the peptide sequence. The cyclized peptide was side-chain deprotected, cleaved from the resin, precipitated in cold ether, and purified by preparative high-performance liquid chromatography (HPLC). The cyclic peptide was characterized by Electro Spray Ionization (ESI) spectrometry For grafting, […] peptide was incubated with NPs at ambient conditions for 10 h. After grafting, the NPs were purified by dialysis against water and incubated with MCF-7 and U87MG tumor cells. After incubation, unattached NPs were removed by washing, cells were fixed, and stained with phalloidin (for cytoskeleton) and DAPI (for cell nuclei) and imaged with confocal microscopy. FIGS. 5(a) and 5(b) show the image of MCF-7 and U87MG cells, respectively. The bright dots in FIG. 5(b) and their absence in FIG. 5(a) are the FITC-stained c(-GRGfC-) peptide grafted NPs that are attached/internalized by U87MG cells that have high expression of αvβ3 integrin receptor.

[3] = test system: U87MG cells (high expression of αvβ3 integrin receptor); assay: as above; type: cell-based
Text: as §1

Compound: COc1cccc2c1C(=O)c1c(O)c3c(c(O)c1C2=O)C[C@@](O)(C(=O)CO)C[C@@H]3O[C@H]1C[C@H](N)[C@H](O)[C@H](C)O1 [Dox]
- host toxicity (body weight change) (mouse breast cancer MTCL): highest body weight loss

Compound: CC(=O)O[C@H]1C(=O)[C@@]2(C)[C@H]([C@H](OC(=O)c3ccccc3)[C@]3(O)C[C@H](OC(=O)[C@H](O)[C@@H](NC(=O)c4ccccc4)c4ccccc4)C(C)=C1C3(C)C)[C@]1(OC(C)=O)CO[C@@H]1C[C@@H]2O [Paclitaxel]
- viability at 40 µg/mL (HCT116 tumor cell line): 40%

Compound: CVVVVVVKK [CV6K2 NPs, NPs self-assembled from the CV6K2 peptide only]
- average diameter (NP size), DLS [1]: 70 nm
- duration of Paclitaxel release [2]: 3 days
- duration of Paclitaxel release ([2]; listed as peptide): 5 days

Compound: c(-GRGfC-) grafted NPs: FITC-stained NPs grafted with cyclic D-Phe-Cys-Arg-Gly-Asp peptide
- attachment/internalization of FITC-stained grafted NPs (MCF-7 cells): absence
- attachment/internalization of FITC-stained grafted NPs [3]: attached/internalized
